Assay results as given in ChEMBL document CHEMBL1122575, “Dependence of beta-lactamase stability on substructures within beta-lactam antibiotics” (J Med Chem, 1984).
In brackets after ≈: the same amount, converted by molar mass.

Legend:
Klebsiella aerogenes [1] = experiment: Compound was evaluated for the antibacterial activity against Klebsiella aerogenes with strain K1- at 10e4/10e6 cfu; <0.05/0.1; assay type: functional
Klebsiella aerogenes [2] = experiment: Compound was evaluated for the antibacterial activity against Klebsiella aerogenes with strain K1+ at 10e4/10e6 cfu; 6.3/>100; assay type: functional
Escherichia coli [3] = experiment: Compound was evaluated for the antibacterial activity against Escherichia coli (RTEM+organism) at 10e4/10e6 cfu; 0.1/0.2; assay type: functional
Escherichia coli [4] = experiment: Compound was evaluated for the antibacterial activity against Escherichia coli (RTEM-organism) at 10e4/10e6 cfu; 0.2/0.2; assay type: functional
Escherichia coli [5] = experiment: Compound was evaluated for the antibacterial activity against Escherichia coli (RTEM+organism). 10e4/10e6 colony forming units are observed; 3.1/25; assay type: functional
[6] = Relative hydrolysis rate (RHR) was evaluated against RTEM enzyme; assay type: ADME
Providencia rettgeri = experiment: Compound was evaluated for the antibacterial activity against Providencia rettgeri with the strain beta-Lactamase-negative (LAC-); assay type: functional
Escherichia coli [7] = experiment: Relative hydrolysis rate (RHR) was evaluated against Escherichia coli with the strain RTEM; assay type: ADME, organism-based
Staphylococcus aureus = experiment: Compound was evaluated for the antibacterial activity against Staphylococcus aureus with the strain beta-Lactamase-positive (LAC+)/beta-Lactamase-negative (LAC-); 2/1; assay type: functional
[8] = Relative Vmax was reported; assay type: ADME
Escherichia coli [9] = experiment: Compound was evaluated for the antibacterial activity against Escherichia coli (RTEM+organism) at 10e4/10e6 colony forming units; 0.8/3.1; assay type: functional
Escherichia coli [10] = experiment: Compound was evaluated for the antibacterial activity against Escherichia coli (RTEM+organism). 10E6 colony forming units are observed; assay type: functional
Escherichia coli [11] = experiment: cEscherichia coli with strain NIHJ (beta-Lactamase-negative (LAC-)); assay type: functional
Escherichia coli [12] = experiment: Compound was evaluated for the antibacterial activity against Escherichia coli (RTEM+organism) at 10e4/10e6 colony forming units; 25/100; assay type: functional

## C=C[C@@H]1[C@H](NC(=O)/C(=N/OC)c2csc(N)n2)C(=O)N1S(=O)(=O)[O-].[K+]
Klebsiella aerogenes [1]
  MIC: < 0.05 mg/L
Klebsiella aerogenes [2]
  MIC: 6.3 mg/L
Escherichia coli [3]
  MIC: 0.1 mg/L
Escherichia coli [4]
  MIC: 0.2 mg/L

## CO/N=C(\C(=O)N[C@H]1CN(S(=O)(=O)[O-])C1=O)c1csc(N)n1.[K+]
Escherichia coli [5]
  MIC: 3.1 mg/L
[6]
  RHR: 12
Providencia rettgeri
  MIC: < 0.05 mg/L
Escherichia coli [7]
  RHR: 106

## COc1cccc(OC)c1C(=O)N[C@@H]1C(=O)N2C1SC(C)(C)C2C(=O)O (stereo partly drawn)
Staphylococcus aureus
  MIC: 2 mg/L (≈ 5.26 µM)
[8]
  RVmax: 0.04

## CC(C)(O/N=C(\C(=O)N[C@H]1CN(S(=O)(=O)[O-])C1=O)c1csc(N)n1)C(=O)[O-].[K+].[K+]
Escherichia coli [9]
  MIC: 0.8 mg/L
[6]
  RHR: 2.3

## CO/N=C(\C(=O)N[C@@H]1C(=O)N2C(C(=O)O)=C(COC(C)=O)C[S@@+]([O-])C12)c1csc(N)n1 (stereo partly drawn)
[6]
  RHR: 160
Escherichia coli [10]
  MIC: 1.6 mg/L (≈ 3.39 µM)

## Cn1nnnc1SCC1=C(C(=O)O)N2C(=O)C(NC(=O)C(C(=O)O)c3ccc(O)cc3)C2SC1 (stereo not drawn)
Escherichia coli [11]
  MIC: 3.13 mg/L (≈ 6.18 µM)
[6]
  RHR: 0.96

## CC(C)O/N=C(\C(=O)N[C@H]1CN(S(=O)(=O)[O-])C1=O)c1csc(N)n1.[K+]
Escherichia coli [12]
  MIC: 25 mg/L
[6]
  RHR: 7
